Measurements published in patent publication US6407113B1, “Medicament for treatment of diastolic dysfunction” (Mitsubishi Chemical Corporation, priority 1998, dated 2002).

How the values were obtained:
[1] = biological target: T1, sarcoplasmic reticulum Ca^2+-ATPase (Canis lupus familiaris, UniProt O46674); test: Sarcoplasmic reticulum Ca2+-ATPase activity of myocardium collected after in vivo drug administration (Pi colorimetry); assay type: biochemical, dog
T1 construct: sarcoplasmic reticulum from both post-ischemic and non-ischemic regions of the left ventricle of dogs; from tissue; host or cells: dog left ventricle (LAD occluded 30 min, reperfused 30 min), sarcoplasmic reticulum fraction
T1 sequence (O46674 whole entry, the tested form may be a part): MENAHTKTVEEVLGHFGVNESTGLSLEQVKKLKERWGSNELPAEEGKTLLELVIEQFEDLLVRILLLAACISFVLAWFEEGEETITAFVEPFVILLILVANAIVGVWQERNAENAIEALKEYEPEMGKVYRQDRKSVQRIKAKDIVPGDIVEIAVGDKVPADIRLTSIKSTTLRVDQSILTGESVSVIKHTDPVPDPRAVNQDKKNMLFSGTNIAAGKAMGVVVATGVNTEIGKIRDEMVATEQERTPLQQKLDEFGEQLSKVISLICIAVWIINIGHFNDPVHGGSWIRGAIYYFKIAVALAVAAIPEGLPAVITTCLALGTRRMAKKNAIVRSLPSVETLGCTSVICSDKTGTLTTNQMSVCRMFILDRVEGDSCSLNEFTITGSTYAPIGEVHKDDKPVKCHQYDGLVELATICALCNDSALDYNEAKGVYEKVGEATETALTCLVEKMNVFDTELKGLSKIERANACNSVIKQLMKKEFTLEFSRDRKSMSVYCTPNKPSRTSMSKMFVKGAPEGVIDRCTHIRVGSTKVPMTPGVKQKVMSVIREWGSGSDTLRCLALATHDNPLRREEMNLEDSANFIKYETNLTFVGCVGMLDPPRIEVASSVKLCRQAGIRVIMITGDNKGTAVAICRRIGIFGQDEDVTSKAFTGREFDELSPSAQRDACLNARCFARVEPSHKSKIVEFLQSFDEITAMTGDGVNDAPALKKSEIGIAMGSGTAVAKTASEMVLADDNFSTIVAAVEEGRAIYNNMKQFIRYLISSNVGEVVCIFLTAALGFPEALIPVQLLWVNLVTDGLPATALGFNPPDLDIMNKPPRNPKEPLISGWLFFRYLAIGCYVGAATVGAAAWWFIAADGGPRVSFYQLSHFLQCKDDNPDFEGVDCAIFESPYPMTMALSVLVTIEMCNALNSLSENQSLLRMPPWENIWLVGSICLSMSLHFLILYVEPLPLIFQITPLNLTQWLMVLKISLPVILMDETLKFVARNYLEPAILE
Procedure: After hemodynamic stability is established following operation, the dissected portion of LAD was occluded for 30 minutes and then reperfused for 1 hour. At the same time, the cardiac function (%SS) in the above-described ischemic/reperfused region was continuously monitored through-out the protocol.
The animals were randomly grouped into two groups, one consisting of animals to be administered with the medicament of the present invention (Drug administration group; N=6) and the other of control group (N-6). The dogs of drug administration group were intravenously administered with the medicament of the present invention (3 μg/kg) into the right femoral vein 5 minutes before reperfusion, followed by continuous infusion at 30 μg/kg/hr. Dogs of the control group were administered with the equal amount of saline.
After 1-hour reperfusion, their hearts were isolated and the myocardium in post-ischemic region and non-ischemic region of the left ventricles were collected from which the fractions having sarcoplasmic reticulum Ca^2+-ATPase activity were extracted to be subjected to protein assay (Bradford method) and stored at −80° C. The defrozen fractions were used to determine Ca^2+-ATPase activity. The activity was determined by measuring the amount of the generated inorganic phosphate (Pi) by colorimetry using phosphor/molybdic acid and malachite green (μmoles Pi/mg protein/min).
Next, results obtained from the Ca^2+-ATPase activity assay of the sarcoplasmic reticulum collected from each region are shown in FIGS. 2 and 3.

[2] = biological target: T1, sarcoplasmic reticulum Ca^2+-ATPase; test: Direct effect in vitro on sarcoplasmic reticulum Ca2+-ATPase activity; assay type: biochemical, dog; conditions: preincubation 37° C. 5 min; for sarcoplasmic reticulum Ca^2+-ATPase activity, post-ischemic region, in vitro: control 0.045±0.005; for sarcoplasmic reticulum Ca^2+-ATPase activity, non-ischemic region, in vitro: control 0.057±0.003
Procedure: The Ca^2+-ATPase activity of the sarcoplasmic reticulum from both post-ischemic and non-ischemic regions of the left ventricle of dogs, in which LAD was occluded for 30 minutes followed by reperfusion for 30 minutes, was measured in the same manner as in Example 1. The direct effect of the medicament of the present invention on the sarcoplasmic reticulum was examined in vitro by determining the amount of inorganic phophorous generated during the reaction for 15 minutes, which was triggered by adding ATP to the reaction solution, with the preincubated medicament of the present invention at 37° C. for 5 minutes.
For each of post-ischemic region and non-ischemic region (N=6), three groups were tested; control group which was preincubated with H2O, groups with low level dosage (10^−7 M of the medicament of the present invention was administered), and group with high level dosage (10^−6 M of the medicament of the present invention was administered)

[3] = tested on: ischemic/reperfused myocardium; test: Regional cardiac function (%SS) in brief-ischemic/reperfused myocardium in dogs; assay type: in vivo; conditions: dog; 30 min LAD occlusion, 1 h reperfusion; 3 μg/kg i.v. 5 min before reperfusion then 30 μg/kg/hr infusion
Procedure: The chest of mongrel dogs (adult, male and female) was opened under anesthesia with pentobarbital (30 mg/kg, i.v.) and a portion of the left coronary anterior descending (LAD) was dissected. A catheter-tip-pressure transducer (Millar; MPC-500) was inserted from the left carotidartery into the left ventricle to determine the left ventricular pressure and its first differential value (dP/dt). A pair of crystal probes were mounted in the LAD region to determine changes in regional segment length. Diastolic segment length (EDL; threshold point of dP/dt) and systolic segment length (ESL; dP/dt(−) max point) were determined from the waveform of dP/dt, and the regional segment shortening (%SS) in the ischemic/reperfused myocardium was calculated as follows: %SS=(EDL−ESL)/EDL×100. After hemodynamic stability is established following operation, the dissected portion of LAD was occluded for 30 minutes and then reperfused for 1 hour. At the same time, the cardiac function (%SS) in the above-described ischemic/reperfused region was continuously monitored through-out the protocol. The animals were randomly grouped into two groups, one consisting of animals to be administered with the medicament of the present invention (Drug administration group; N=6) and the other of control group (N-6). […]

sarcoplasmic reticulum Ca^2+-ATPase activity, post-ischemic region, in vitro ([2]; 10^−6 M (high concentration)) | sarcoplasmic reticulum Ca^2+-ATPase activity, non-ischemic region, in vitro ([2]; 10^−6 M (high level dosage)) | sarcoplasmic reticulum Ca^2+-ATPase activity, post-ischemic region, in vitro ([2]; 10^−7 M (low concentration)) | sarcoplasmic reticulum Ca^2+-ATPase activity, non-ischemic region, in vitro ([2]; 10^−7 M (low level dosage)) | sarcoplasmic reticulum Ca^2+-ATPase activity, post-ischemic region ([1]; Ca^2+ 10 μM, dog dosed in vivo 3 μg/kg i.v. + 30 μg/kg/hr, control group 0.070±0.004) | sarcoplasmic reticulum Ca^2+-ATPase activity, non-ischemic region ([1]; Ca^2+ 10 μM, dog dosed in vivo 3 μg/kg i.v. + 30 μg/kg/hr, control group 0.089±0.009) | Compound | inhibition of the ATPase activity of the sarcoplasmic reticulum fraction ([1]; 1 μM) | regional cardiac function (%SS) in post-reperfusion region compared to control group [3]
– | – | – | – | – | – | C/C=C(/C)C(=O)O[C@H]1C(C)=C2[C@H]([C@@H]1OC(=O)CCCCCCC)[C@@](C)(OC(C)=O)C[C@H](OC(=O)CCC)[C@@]1(O)[C@H]2OC(=O)[C@@]1(C)O [Thapsigargin, reference compound] | completely inhibited | –
0.062±0.005 μmol Pi/mg min | 0.060±0.003 μmol Pi/mg min | 0.057±0.003 μmol Pi/mg min | 0.062±0.002 μmol Pi/mg min | 0.090±0.008 μmol Pi/mg min | 0.088±0.006 μmol Pi/mg min | Cc1ccc(N2CCNCC2)c(S(=O)(=O)O)c1 [medicament of the present invention, 2-(1-piperazinyl)-5-methylbenzenesulfonic acid derivative monohydrate] | – | significantly improved
